In patent publication US7872004B2, “6-(heterocyclyl-substituted benzyl)-4-oxoquinoline compound and use thereof as HIV integrase inhibitor” (Japan Tobacco Inc., priority 2006, dated 2011) one finds IC50 data, which are given here for 19 compounds.

Where only a bound is given, the exact number is not on record here.

The target in the test is T1, HIV integrase (Human immunodeficiency virus type 1 group M subtype B, UniProt P12497, F1332H).
T1 construct: HIV integrase full length gene; made in house; host or cells: Escherichia coli BL21(DE3)
Kind of test: Determination of enzyme (HIV integrase) inhibitory activity. Particulars: recombinant integrase protein (F185H), strand transfer plate assay, absorbance at 450 nm. In kind it is biochemical, HIV (Human Immunodeficiency Virus (type 1)). An excerpt: The following explains evaluation methods of the HIV integrase inhibitory activity of the compound of the present invention.
(i) Construction of Recombinant Integrase Gene Expression System
HIV integrase full length gene (J. Virol., 67, 425-437 (1993)) in which phenylalanine at codon 185 was substituted by histidine, was inserted between the restriction enzyme NdeI and XhoI sites of plasmid pET21a(+) (Novagen), whereby an integrase expression vector pET21a-IN-F185H was constructed.
(ii) Production and Purification of Integrase Protein
Escherichia coli recombinant BL21(DE3) transformed with plasmid pET21a-IN-F185H obtained in (i) was shake cultured at 30° C. in a liquid medium containing ampicillin. When the culture reached the logarithmic growth phase, isopropyl-β-D-thiogalactopyranoside was added to promote expression of integrase gene. The culture was continued for 3 hr to promote accumulation of the integrase protein. The recombinant E. coli was collected in pellets by centrifugal separation and preserved at −80° C.
The E. coli was suspended in Lysis buffer ([…] HEPES (pH 7.5), 5 mM DTT, 10 mM CHAPS, 10% glycerol) containing 1M sodium chloride and subjected to repeat pressurization and depressurization for rupture, and centrifugal separation at 4° C., 40,000×g, 60 min to recover a water-soluble fraction (supernatant). This was diluted 10-fold with Lysis buffer free of sodium chloride, mixed with SP-Sepharose (GE healthcare Bioscience) and stirred at 4° C. for 60 min to allow adsorption of integrase protein to the resin. The resin was washed with Lysis buffer containing 100 mM sodium chloride and the integrase protein was eluted with Lysis buffer containing 1M sodium chloride.
The eluted integrase protein solution was subjected to a Superdex 75 (GE healthcare Bioscience) column for gel filtration. The protein was eluted with Lysis buffer containing 1M sodium chloride.
The obtained fractions of the integrase protein were collected and preserved at −80° C.
(iii) Preparation of DNA Solution
The following DNA synthesized by Greiner or FASMAC was dissolved in TE buffer (10 mM Tris-hydrochloric acid (pH 8.0), 1 mM EDTA) and mixed with donor DNA, target DNA, and each complementary strand (+ and − strands) to 1 μM. The mixture was heated at 95° C. for 5 min, 80° C. for 10 min, 70° C. for 10 min, 60° C. for 10 min, 50° C. for 10 min and 40° C. for 10 min and kept at 25° C. to give a double stranded DNA, which was used for the test.
(iv) Determination of Enzyme (HIV Integrase) Inhibitory Activity
The donor DNA was diluted with TE buffer to 10 nM (or 5 nM), of which 50 μl was added to each well of streptavidin-coated microtiter plate (Roche) and allowed to adsorb at 37° C. for 60 min. The plate was washed with phosphate buffer (Dulbecco's PBS, Sanko Junyaku Co., Ltd.) containing 0.1% Tween 20 and phosphate buffer. Then, an enzyme reaction mixture (70 μl), a test substance (10 μl) diluted with the enzyme reaction mixture and 100 μg/ml (or 64 μg/ml (2 μM)) integrase protein (10 μl) were added to each well and reacted at 37° C. for 60 min.
Composition of the enzyme reaction mixture: 30 mM MOPS (3-morpholinopropanesulfonic acid), 5 mM magnesium chloride, 3 mM DTT (dithiothreitol), 0.1 mg/ml BSA (bovine serum albumin), 5% glycerol, 10% DMSO (dimethyl sulfoxide), 0.01% Tween 20.
Then, 50 nM (or 25 nM) target DNA (10 μl) was added, reacted at 37° C. for 10 min and washed with phosphate buffer containing 0.1% Tween 20 to stop the reaction.
Then, 100 mU/ml peroxidase labeled anti-digoxigenin antibody solution (Roche, 100 μl) was added, and the mixture was reacted at 37° C. for 60 min, followed by washing with phosphate buffer containing 0.1% Tween 20.
A peroxidase color solution (Bio Rad, 100 μl) was added and allowed to react at room temperature for 4 min (or 3 min). The color reaction was stopped by adding IN sulfuric acid (100 μl). The absorbance at 450 nm was measured. […]
For `CCOC[C@@H](CO)n1cc(C(=O)O)c(=O)c2cc(Cc3cc(N4CCOCC4)cc(Cl)c3F)c(CC)cc21` [Example 1, 6-[3-chloro-2-fluoro-5-(morpholin-4-yl)benzyl]-1-((R)-1-ethoxymethyl-2-hydroxyethyl)-7-ethyl-4-oxo-1,4-dihydroquinoline-3-carboxylic acid], the IC50 is below 10 nM.

As to `CCc1cc2c(cc1Cc1cc(N3CCOCC3)cc(Cl)c1F)c(=O)c(C(=O)O)cn2[C@H](CO)[C@H](C)OC` [Example 35, 6-[3-chloro-2-fluoro-5-(morpholin-4-yl)benzyl]-7-ethyl-1-((1R,2S)-1-hydroxymethyl-2-methoxypropyl)-4-oxo-1,4-dihydroquinoline-3-carboxylic acid], the IC50 is 10 to 100 nM.

Turning to `CCO[C@H](C)[C@@H](CO)n1cc(C(=O)O)c(=O)c2cc(Cc3cc(N4CCOCC4)cc(Cl)c3F)c(OC)cc21` [Example 50, 6-[3-chloro-2-fluoro-5-(morpholin-4-yl)benzyl]-1-[(1R,2R)-2-ethoxy-1-(hydroxymethyl)propyl]-7-methoxy-4-oxo-1,4-dihydroquinoline-3-carboxylic acid], the half-inhibitory concentration (IC50) fell in the range of 10 to 100 nM.

Regarding `CCc1cc2c(cc1Cc1cc(N3CCOCC3)cc(Cl)c1F)c(=O)c(C(=O)O)cn2[C@H](CO)[C@@H](C)OC` [Example 34, 6-[3-chloro-2-fluoro-5-(morpholin-4-yl)benzyl]-7-ethyl-1-((1R,2R)-1-hydroxymethyl-2-methoxypropyl)-4-oxo-1,4-dihydroquinoline-3-carboxylic acid], the IC50 is below 10 nM.

As to `CCc1cc2c(cc1Cc1cc(N3CCCC3=O)c(F)c(Cl)c1F)c(=O)c(C(=O)O)cn2[C@H](CO)C(C)C` [Example 26, 6-[3-chloro-2,4-difluoro-5-(2-oxopyrrolidin-1-yl)benzyl]-7-ethyl-1-((S)-1-hydroxymethyl-2-methylpropyl)-4-oxo-1,4-dihydroquinoline-3-carboxylic acid], the IC50 was below 10 nM.

`COc1cc2c(cc1Cc1cc(N3CCOC3=O)cc(Cl)c1F)c(=O)c(C(=O)O)cn2[C@H](CO)C(C)C` [Example 4, 6-[3-chloro-2-fluoro-5-(2-oxooxazolidin-3-yl)benzyl]-1-((S)-1-hydroxymethyl-2-methylpropyl)-7-methoxy-4-oxo-1,4-dihydroquinoline-3-carboxylic acid]: the half-maximal inhibitory concentration (IC50) is below 10 nM.

Consider `COc1cc2c(cc1Cc1cc(N3CCSCC3)cc(Cl)c1F)c(=O)c(C(=O)O)cn2[C@H](CO)C(C)C` [Example 27, 6-[3-chloro-2-fluoro-5-(thiomorpholin-4-yl)benzyl]-1-((S)-1-hydroxymethyl-2-methylpropyl)-7-methoxy-4-oxo-1,4-dihydroquinoline-3-carboxylic acid], for which the half-maximal inhibitory concentration (IC50) is below 10 nM.

Take `COc1cc2c(cc1Cc1cc(N3CC[C@@H](F)C3)cc(Cl)c1F)c(=O)c(C(=O)O)cn2[C@H](CO)C(C)C` [Example 13, 6-[3-chloro-2-fluoro-5-((R)-3-fluoropyrrolidin-1-yl)benzyl]-1-((S)-1-hydroxymethyl-2-methylpropyl)-7-methoxy-4-oxo-1,4-dihydroquinoline-3-carboxylic acid]: the half-inhibitory concentration (IC50) was below 10 nM.

For the compound `CCc1cc2c(cc1Cc1cc(N3CCCC3=O)cc(Cl)c1F)c(=O)c(C(=O)O)cn2[C@H](CO)C(C)C` [Example 24, 6-[3-chloro-2-fluoro-5-(2-oxopyrrolidin-1-yl)benzyl]-7-ethyl-1-((S)-1-hydroxymethyl-2-methylpropyl)-4-oxo-1,4-dihydroquinoline-3-carboxylic acid], the half-maximal inhibitory concentration (IC50) was 10 to 100 nM.

Take `COc1cc2c(cc1Cc1cc(-c3nccs3)cc(Cl)c1F)c(=O)c(C(=O)O)cn2[C@H](CO)C(C)C` [Example 37, 6-[3-chloro-2-fluoro-5-(thiazol-2-yl)benzyl]-1-((S)-1-hydroxymethyl-2-methylpropyl)-7-methoxy-4-oxo-1,4-dihydroquinoline-3-carboxylic acid]: the IC50 was 10 to 100 nM.

On to `COc1cc2c(cc1Cc1cc(N3CCOCC3)cc(Cl)c1F)c(=O)c(C(=O)O)cn2[C@H](CO)[C@H](C)OC` [Example 28, 6-[3-chloro-2-fluoro-5-(morpholin-4-yl)benzyl]-1-((1R,2S)-1-hydroxymethyl-2-methoxypropyl)-7-methoxy-4-oxo-1,4-dihydroquinoline-3-carboxylic acid], for which the IC50 was below 10 nM.

Turning to `CC(C)(C)[C@@H](CO)n1cc(C(=O)O)c(=O)c2cc(Cc3cc(N4CCOCC4)c(F)c(Cl)c3F)ccc21` [Example 56, 6-[3-chloro-2,4-difluoro-5-(morpholin-4-yl)benzyl]-1-((S)-1-hydroxymethyl-2,2-dimethylpropyl)-4-oxo-1,4-dihydroquinoline-3-carboxylic acid], the IC50 is below 10 nM.

Turning to `COc1cc2c(cc1Cc1cc(N3CCC(=O)N3C)cc(Cl)c1F)c(=O)c(C(=O)O)cn2[C@H](CO)C(C)C` [Example 10, 6-[3-chloro-2-fluoro-5-(2-methyl-3-oxopyrazolidin-1-yl)benzyl]-1-((S)-1-hydroxymethyl-2-methylpropyl)-7-methoxy-4-oxo-1,4-dihydroquinoline-3-carboxylic acid], the concentration for half-maximal inhibition (IC50) is below 10 nM.

As for `COc1cc2c(cc1Cc1cc(N3CCCS3(=O)=O)cc(Cl)c1F)c(=O)c(C(=O)O)cn2[C@H](CO)C(C)C` [Example 21, 6-[3-chloro-5-(1,1-dioxoisothiazolidin-2-yl)-2-fluorobenzyl]-1-((S)-1-hydroxymethyl-2-methylpropyl)-7-methoxy-4-oxo-1,4-dihydroquinoline-3-carboxylic acid], the half-maximal inhibitory concentration (IC50) is below 10 nM.

On to `COc1cc2c(cc1Cc1cc(N3CCC(O)CC3)cc(Cl)c1F)c(=O)c(C(=O)O)cn2[C@H](CO)C(C)C` [Example 32, 6-[3-chloro-2-fluoro-5-(4-hydroxypiperidin-1-yl)benzyl]-1-((S)-1-hydroxymethyl-2-methylpropyl)-7-methoxy-4-oxo-1,4-dihydroquinoline-3-carboxylic acid], for which the IC50 is below 10 nM.

Regarding `COc1cc2c(cc1Cc1cc(N3CCOCC3)cc(Cl)c1F)c(=O)c(C(=O)O)cn2[C@H](CO)C(C)C` [Example 5, 6-[3-chloro-2-fluoro-5-(morpholin-4-yl)benzyl]-1-((S)-1-hydroxymethyl-2-methylpropyl)-7-methoxy-4-oxo-1,4-dihydroquinoline-3-carboxylic acid], the 50% inhibitory concentration (IC50) was below 10 nM.

For `CCc1cc2c(cc1Cc1cc(N3CCOCC3)cc(Cl)c1F)c(=O)c(C(=O)O)cn2[C@H](CO)COC` [Example 20, 6-[3-chloro-2-fluoro-5-(morpholin-4-yl)benzyl]-7-ethyl-1-[(R)-2-hydroxy-1-(methoxymethyl)ethyl]-4-oxo-1,4-dihydroquinoline-3-carboxylic acid], the half-inhibitory concentration (IC50) was below 10 nM.

With `CCc1cc2c(cc1Cc1cc(N3CCOCC3)cc(Cl)c1F)c(=O)c(C(=O)O)cn2[C@H](CO)C(C)C` [Example 23, 6-[3-chloro-2-fluoro-5-(morpholin-4-yl)benzyl]-7-ethyl-1-((S)-1-hydroxymethyl-2-methylpropyl)-4-oxo-1,4-dihydroquinoline-3-carboxylic acid], the IC50 was below 10 nM.

As to `COc1cc2c(cc1Cc1cc(N3CCOCC3)cc(Cl)c1F)c(=O)c(C(=O)O)cn2[C@H](CO)[C@@H](C)OC` [Example 15, 6-[3-chloro-2-fluoro-5-(morpholin-4-yl)benzyl]-1-((1R,2R)-1-hydroxymethyl-2-methoxypropyl)-7-methoxy-4-oxo-1,4-dihydroquinoline-3-carboxylic acid], the IC50 is below 10 nM.

What is called IC50 is the concentration that inhibits the measured activity by half.
